The source of these data is PubChem BioAssay (NCI).

Experiment in all cases: inhibition of tumour cell growth, NCI panel, 48 h
For test [1], the system named is T-47D breast.
Test [2] deals with TK-10 renal.
Test [3] concerns MDA-MB-231 breast.
Test [4] relates to MALME-3M melanoma.
The test system of test [5] is HT29 colon.
Test [6] concerns OVCAR-5 ovarian.
Test [7] relates to MOLT-4 leukemia.
The subject of test [8] is OVCAR-8 ovarian.
For test [9], the system named is SF-268 CNS.
Test [10] concerns MCF7 breast.

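Results reflect a 48-hour exposure of cells in 96-well plates to compound at five concentrations. GI50 is the concentration that inhibits growth by half. TGI marks complete inhibition of growth.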

With `CCOC(=O)Nc1ccc2nc(-c3cscn3)[nH]c2c1`, the GI50 was 5.32 µM in test [1]; 28.6 µM in [2]; 7.81 µM in test [3]; 1.75 µM in test [4]; 2.6 µM in test [5]; 26.9 µM in test [6]. For the same molecule, the GI50 in [7] was 5.31 µM; in [8], 7.89 µM; in test [9], 18 µM; in test [10], 2.68 µM. For the same molecule, the TGI was greater than 100 µM in test [1]; greater than 100 µM in [2]; greater than 100 µM in [3]; greater than 100 µM in test [4]; 97.5 µM in test [5]; greater than 100 µM in [6]. Besides, the TGI in test [7], in test [8], in [9] and in test [10] was greater than 100 µM throughout.
As for `Oc1ccc(Cl)cc1C=Nc1cnc2ccccc2c1`, the TGI in test [1] was 51.3 µM; in test [2], greater than 100 µM; in [3], greater than 85.7 µM; in test [4] it was greater than 100 µM; in [5], greater than 100 µM; in test [6], greater than 100 µM. For the same molecule, the TGI in test [7] was 47.2 µM; in test [8] it was greater than 100 µM; in test [9], greater than 100 µM; in test [10] it was greater than 100 µM.
With `CN1CCN(C2=NC(=O)/C(=C\c3ccc(N(C)C)cc3)S2)CC1`, the GI50 in test [1] is 36.7 µM; in test [2], greater than 100 µM; in test [3], 74.5 µM; in [4] it was greater than 100 µM; in test [5], 39.5 µM; in test [6], greater than 100 µM. Besides, the GI50 was 42.2 µM in test [7], greater than 100 µM in test [8], greater than 100 µM in [9] and greater than 100 µM in test [10]. The TGI in [1], in test [2], in test [3], in test [4], in [5] and in [6] was greater than 100 µM throughout. The TGI in [7], in test [8], in test [9] and in test [10] was greater than 100 µM in each case.
`N=C1CCCC1C(=S)SCCC(N)=O` (stereo unspecified): the TGI in [1], in test [2], in test [3], in [4], in [5] and in test [6] was greater than 100 µM in each case. The TGI in test [7], in [8], in [9] and in test [10] was greater than 100 µM in each case.
With `CC1(C)CC(C)(C)c2cc(NC(=S)Nc3ccc([N+](=O)[O-])cc3)ccc2S1`, the GI50 is 17.1 µM in test [1]; 10.3 µM in test [2]; 10.8 µM in test [3]; 2.62 µM in test [4]; 24.1 µM in test [5]; 14.2 µM in test [6]. Further, the GI50 in test [7] was 19.1 µM; in test [8] it was 16.6 µM; in test [9], 26.5 µM; in test [10], 29.1 µM. The TGI in test [1] is greater than 52.6 µM; in test [2] it was 24.8 µM; in test [3], 22.6 µM; in [4], 10.1 µM; in test [5], greater than 100 µM; in test [6], 49.3 µM. Further, the TGI in test [7] was greater than 100 µM; in [8] it was 60.4 µM; in [9], greater than 53.7 µM; in test [10], greater than 82.1 µM.
As for `COc1cc2c(cc1OCCNC(=O)/C=C1\C[C@H]3C=Nc4cc(OCc5ccccc5)c(OC)cc4C(=O)N3C1)N=C[C@@H]1CCCN1C2=O`, the GI50 in [1] was 2.77 µM; in test [2], 7.07 µM; in test [3], 5.11 µM; in test [4], 2.2 µM; in [5], 20.3 µM; in [6], 4.07 µM. Besides, the GI50 in test [8] was 3.89 µM; in test [9], 2.18 µM; in test [10], 2.62 µM. In addition, the TGI is 55.9 µM in test [1]; 36.7 µM in [2]; 23.4 µM in test [3]; 6.69 µM in test [4]; greater than 100 µM in [5]; 26.3 µM in test [6]. Also, the figures for the TGI in test [8], in test [9] and in [10] were 23.1 µM, 7.03 µM and 9.2 µM, respectively.
Turning to `COc1ccc(-n2c(=S)sc3c(Cl)nc(C)nc32)c(OC)c1`, the GI50 is 6.42 µM in [1]; 4.66 µM in [2]; 3.16 µM in [3]; 2.23 µM in test [4]; 2.41 µM in test [5]; 6.15 µM in test [6]. Moreover, the GI50 in test [7] is 2.12 µM; in test [8], 2.66 µM; in test [9], 2.17 µM; in [10], 3.67 µM. Besides, the TGI was found to be 21.6 µM in test [1]; 18.7 µM in test [2]; 10.3 µM in test [3]; 6.23 µM in test [4]; 6.28 µM in [5]; 20.9 µM in test [6]. Further, the TGI in [7] was 5.48 µM; in [8], 7.4 µM; in test [9], 5.21 µM; in [10] it was 15.6 µM.
Consider `C[C@@]1(F)[C@H](O)[C@@H](CO)O[C@H]1n1ccc(=O)[nH]c1=O`, for which the GI50 in [1], in test [2], in test [3], in [4], in test [5] and in test [6] was greater than 100 µM each time. For the same molecule, the GI50 in test [7], in test [8], in test [9] and in test [10] was greater than 100 µM in each case. The TGI in test [1], in [2], in [3], in test [4], in test [5] and in test [6] was greater than 100 µM in each case. Further, the TGI in test [7], in test [8], in test [9] and in test [10] was greater than 100 µM throughout.
As to `Cn1c(COC(=O)NCCc2ccccn2)nc2c(N3CCOCC3)nc(Cl)nc21`, the GI50 is 1.65 µM in test [1]; 1.72 µM in [2]; 1.62 µM in test [3]; 1.77 µM in test [4]; 1.17 µM in [5]; 1.73 µM in [6]. Also, the GI50 was 2.41 µM in [7], 2.38 µM in test [8], 1.52 µM in [9] and 0.946 µM in [10]. The TGI in test [1] was 3.67 µM; in [2], 3.34 µM; in test [3] it was 3.63 µM; in test [4] it was 3.38 µM; in test [5], 3.17 µM; in [6], 3.68 µM. The TGI was found to be 8.09 µM in [7], 10.1 µM in test [8], 3.11 µM in [9] and 2.95 µM in test [10].
`Cn1c(COC(=O)NCCn2ccnc2)nc2c(N3CCOCC3)nc(-c3ccccc3)nc21`: the GI50 in test [1] was 1.43 µM; in test [2], 1.07 µM; in test [3] it was 1.06 µM; in test [4], 1.38 µM; in [5], 0.372 µM; in [6] it was 1.39 µM. The GI50 was 0.441 µM in test [7], 0.913 µM in test [8], 1.29 µM in test [9] and 0.356 µM in test [10]. Further, the TGI stood at 4.17 µM in test [1]; 2.41 µM in [2]; 2.34 µM in test [3]; 2.72 µM in test [4]; 1.47 µM in test [5]; 3.01 µM in test [6]. Besides, the TGI in test [7] came to 2.41 µM; in [8] it was 2.63 µM; in [9] it was 2.66 µM; in [10], 1.89 µM.
For the molecule `COc1ccc(-c2ccc(OC)c(OC)c2OC)cc1`, the GI50 was 5.87 µM in test [1]; 5.1 µM in test [2]; 3.21 µM in test [3]; 9.53 µM in test [4]; 0.529 µM in [5]; 8.66 µM in test [6]. In addition, the GI50 in [7] was 2.39 µM; in test [8], 6.9 µM; in [9], 9.28 µM; in test [10], 1.77 µM. For the same molecule, the TGI was greater than 100 µM in test [1]; greater than 100 µM in [2]; greater than 74.5 µM in test [3]; greater than 100 µM in [4]; greater than 100 µM in test [5]; greater than 100 µM in test [6]. Besides, the TGI in test [7], in test [8], in [9] and in [10] was greater than 100 µM in each case.
Regarding `Nc1cc2c3c(cccc3c1)C(=O)N(CCN1CCCC1)C2=O`, the GI50 in [1] is 1.93 µM; in [2], 5.49 µM; in test [3], 4.95 µM; in test [4], 2.49 µM; in [5], 3.11 µM; in test [6], 4.73 µM. Moreover, the GI50 in test [7] was 1.74 µM; in test [8] it was 3.69 µM; in test [9], 4.62 µM; in test [10], 1.18 µM. Also, the TGI in test [1] is 9.36 µM; in test [2] it was 33.7 µM; in test [3], 40.7 µM; in [4], 7.68 µM; in [5], 22.2 µM; in [6], greater than 57.6 µM. The TGI in test [7] was greater than 46.4 µM; in test [8], greater than 100 µM; in test [9] it was 30.5 µM; in test [10] it was 35.6 µM.
For `Clc1ccccc1C(Nc1cnccn1)Nc1cnccn1`, the TGI in test [1], in [2], in test [3], in test [4], in [5] and in test [6] was greater than 100 µM throughout. Besides, the TGI in test [7], in test [8], in [9] and in test [10] was greater than 100 µM in each case.
Take `N#C/C(=C\c1ccc2[nH]ccc2c1)C(=O)NCCCCNC(=O)/C(C#N)=C/c1ccc2[nH]ccc2c1`: the TGI is greater than 10 µM in test [1]; greater than 31.6 µM in test [2]; greater than 10 µM in [3]; greater than 31.6 µM in test [4]; greater than 31.6 µM in test [5]; greater than 31.6 µM in test [6]. Moreover, the TGI in test [7] is greater than 31.6 µM; in test [8], greater than 31.6 µM; in [9] it was greater than 31.6 µM; in test [10], greater than 10 µM.
Take `CCCC(=O)O[C@]1(C)CC[C@@H]2[C@H]3[C@@H]1[C@@H]1C[C@@](C)(O)[C@H](OC)CC[C@](C)(OC(=O)[C@@H]2C)[C@H]3O1`: the GI50 in test [1] was 21.6 µM; in test [2], 28.8 µM; in test [3] it was 28.9 µM; in [4], 17.8 µM; in test [5], 26.9 µM; in [6] it was 58.9 µM. In addition, the GI50 in [7] was 23.5 µM; in test [8], 39.1 µM; in test [9], 38.6 µM; in test [10] it was 18.5 µM. Further, the TGI in [1] was 44.5 µM; in test [2] it was 87.4 µM; in [3], 77.6 µM; in test [4], 33.8 µM; in test [5], 69.7 µM; in test [6] it was greater than 100 µM. The TGI in test [7] was 52 µM; in [8], greater than 100 µM; in [9] it was greater than 100 µM; in test [10] it was 33.7 µM.
For the molecule `O=C1c2cccc3cccc(c23)C(=O)N1CCCCCN1CCN(CCN=c2cc3n(-c4ccc(Cl)cc4)c4ccccc4nc-3cc2Nc2ccc(Cl)cc2)CC1`, the GI50 was 32.8 µM in test [1]; 25 µM in test [2]; 5.82 µM in test [3]; 20.8 µM in test [4]; 9.13 µM in [5]; 10.2 µM in test [6]. Besides, the GI50 in [8] was 12 µM; in test [9], 23.1 µM; in test [10], 8.24 µM. The TGI is greater than 50 µM in [1]; greater than 50 µM in test [2]; 30.3 µM in test [3]; greater than 50 µM in [4]; greater than 50 µM in test [5]; 20.1 µM in test [6]. Moreover, the TGI in test [8] was greater than 50 µM; in [9], greater than 50 µM; in [10] it was 38.4 µM.
